The target in experiment [1] is T1, Sialidase (Clostridium perfringens, UniProt P10481).
T1 sequence (P10481 whole entry): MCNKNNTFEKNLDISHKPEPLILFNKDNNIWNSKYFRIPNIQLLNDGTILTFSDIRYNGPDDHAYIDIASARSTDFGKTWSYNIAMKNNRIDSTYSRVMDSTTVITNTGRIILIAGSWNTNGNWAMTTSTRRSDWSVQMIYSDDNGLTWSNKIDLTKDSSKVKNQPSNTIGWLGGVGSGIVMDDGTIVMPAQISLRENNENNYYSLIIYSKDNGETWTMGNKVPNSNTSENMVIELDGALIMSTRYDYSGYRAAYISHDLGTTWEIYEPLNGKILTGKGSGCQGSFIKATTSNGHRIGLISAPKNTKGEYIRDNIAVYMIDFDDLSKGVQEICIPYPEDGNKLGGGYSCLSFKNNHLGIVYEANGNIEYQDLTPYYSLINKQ

For experiment [2], the target named is T1, Sialidase. This is another data set of the same source.

In ChEMBL document CHEMBL1833845, “Potent inhibition of bacterial neuraminidase activity by pterocarpans isolated from the roots of Lespedeza bicolor” (Bioorg Med Chem Lett, 2011) one finds Ki and IC50 data, which are given here for seven compounds.

One may read the Ki as a measure of affinity in units of concentration, obtained from inhibition or displacement. A higher Ki goes with a looser hold on the target. For orientation: IC50 means the point on the concentration scale where inhibition reaches its midpoint.

For the compound `COc1c(CC=C(C)C)c(O)cc2c1[C@@H]1Oc3c(ccc(O)c3CC=C(C)C)[C@@H]1CO2`, the affinity in experiment [1] corresponds to a Ki of 110 nM. Also, the midpoint of inhibition in experiment [2], the IC50, lay at 90 nM. In experiment [1], `COc1c(CC=C(C)C)c(O)cc2c1[C@@H]1Oc3c(cc(C)c(O)c3CC=C(C)C)[C@@H]1CO2` [BICOLOSIN A] displayed a Ki of 160 nM. For the same compound, in experiment [2], the IC50 was 320 nM. `CC(C)=CCC/C(C)=C/Cc1cc2c(cc1O)OC[C@H]1c3cc(C)c(O)c(CC=C(C)C)c3O[C@@H]21` [BICOLOSIN B]: the affinity in experiment [1] corresponds to a Ki of 1200 nM. In addition, the IC50 in experiment [2] was determined as 1060 nM.

In experiment [1], `COc1cc(O)c(C/C=C(\C)CCC=C(C)C)c2c1[C@@H]1Oc3cc(O)ccc3[C@@H]1CO2` [BICOLOSIN C] yielded a Ki of 160 nM. In experiment [2], this compound displayed an IC50 of 170 nM. `CC(C)=CCc1cc2c(cc1O)OC[C@H]1c3ccc(O)c(CC=C(C)C)c3O[C@@H]21` [ERYBRAEDIN C] returned a Ki in experiment [1] of 2730 nM. Besides, in experiment [2], the IC50 stood at 3350 nM. `CC(C)=CCc1cc2c(cc1O)OCC1c3cc(C)c(O)c(CC=C(C)C)c3OC21` (stereo not drawn) [LESPEBUERGINE G4]: affinity in experiment [1] was put at a Ki of 1350 nM. Further, it took 1840 nM to reach half-maximal inhibition in experiment [2] (IC50). For `O=c1c(O)c(-c2ccc(O)c(O)c2)oc2cc(O)cc(O)c12` [QUERCETIN], in experiment [2], it took 10100 nM to reach half-maximal inhibition (IC50).
